Test results as given in PubChem BioAssay AID256 (DTP/NCI, 2004).
Several values for one entry are separate records, joined by “and”; a condition that tells them apart may be missing. Equal values may be shown once. Toxic doses and inconclusive results are not listed. The calls were made as follows: active = survival T/C of 150% or more; inactive = T/C below 125% in these data.

Tested on: CD2F1 mice, L1210 leukemia ip, survival T/C
Assay: NCI In Vivo Anticancer Drug Screen. Data for tumor model L1210 Leukemia (intraperitoneal) in CD2F1 (CDF1) mice
Conditions: higher = longer survival
Procedure, shortened: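 In this screen, transplantable tumors were grown in mice given either the compound or its vehicle. Results were expressed as the treated measurement relative to the control measurement.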

[1] = endpoint: mean survival time, dose: 100.0 mg/kg/injection, schedule: Q01DX001 (ip), vehicle: saline with Tween-80
[2] = endpoint: mean survival time, dose: 25.0 mg/kg/injection, schedule: Q01DX009 (ip), vehicle: Klucel (hydroxypropylcellulose) (HPC)
[3] = endpoint: mean survival time, dose: 50.0 mg/kg/injection, schedule: Q01DX009 (ip), vehicle: Klucel (hydroxypropylcellulose) (HPC)
[4] = endpoint: mean survival time, dose: 100.0 mg/kg/injection, schedule: Q01DX009 (ip), vehicle: Klucel (hydroxypropylcellulose) (HPC)
[5] = endpoint: mean survival time, dose: 100.0 mg/kg/injection, schedule: Q04DX003 (ip), vehicle: saline with Tween-80
[6] = endpoint: mean survival time, dose: 200.0 mg/kg/injection, schedule: Q04DX003 (ip), vehicle: saline with Tween-80
[7] = endpoint: mean survival time, dose: 400.0 mg/kg/injection, schedule: Q04DX003 (ip), vehicle: saline with Tween-80
[8] = endpoint: mean survival time, dose: 12.5 mg/kg/injection, schedule: Q01DX009 (ip), vehicle: saline with Tween-80
[9] = endpoint: mean survival time, dose: 25.0 mg/kg/injection, schedule: Q01DX009 (ip), vehicle: saline with Tween-80
[10] = endpoint: mean survival time, dose: 200.0 mg/kg/injection, schedule: Q01DX001 (ip), vehicle: saline with Tween-80
[11] = endpoint: mean survival time, dose: 400.0 mg/kg/injection, schedule: Q01DX001 (ip), vehicle: saline with Tween-80
[12] = endpoint: mean survival time, dose: 100.0 mg/kg/injection, schedule: Q01DX009 (ip), vehicle: saline with Tween-80
[13] = endpoint: mean survival time, dose: 200.0 mg/kg/injection, schedule: Q01DX009 (ip), vehicle: saline with Tween-80

Measured: T/C

Nc1ccc(S(=O)(=O)Nc2ccccc2O)cc1
inactive: endpoint: mean survival time, dose: 3.0 mg/kg/injection, schedule: Q01DX001 (ip), vehicle: saline with Tween-80 103 % of control | endpoint: mean survival time, dose: 6.25 mg/kg/injection, schedule: Q01DX001 (ip), vehicle: saline with Tween-80 103 % of control | endpoint: mean survival time, dose: 12.5 mg/kg/injection, schedule: Q01DX001 (ip), vehicle: saline with Tween-80 103 % of control | endpoint: mean survival time, dose: 25.0 mg/kg/injection, schedule: Q01DX001 (ip), vehicle: saline with Tween-80 102 % of control | endpoint: mean survival time, dose: 50.0 mg/kg/injection, schedule: Q01DX001 (ip), vehicle: saline with Tween-80 102 % of control

NCCCCC1(CCCCN)OCCO1
inactive: endpoint: mean survival time, dose: 25.0 mg/kg/injection, schedule: Q01DX009 (ip), vehicle: saline 95 % of control | endpoint: mean survival time, dose: 25.0 mg/kg/injection, schedule: Q04DX002 (ip), vehicle: saline 102 % of control | endpoint: mean survival time, dose: 50.0 mg/kg/injection, schedule: Q01DX009 (ip), vehicle: saline 102 % of control | endpoint: mean survival time, dose: 50.0 mg/kg/injection, schedule: Q04DX002 (ip), vehicle: saline 95 % of control | [1] 94 % of control

C[C@]12C=CC(=O)C=C1CC[C@@H]1[C@@H]2[C@@H](O)C[C@@]2(C)[C@H]1CC[C@]2(O)C(=O)CO
inactive: endpoint: mean survival time, dose: 12.5 mg/kg/injection, schedule: Q01DX010 (sc), vehicle: steriod suspending solution 108 % of control | endpoint: mean survival time, dose: 25.0 mg/kg/injection, schedule: Q01DX009 (sc), vehicle: steriod suspending solution 106 % of control and 109 % of control | endpoint: mean survival time, dose: 25.0 mg/kg/injection, schedule: Q01DX010 (sc), vehicle: steriod suspending solution 108 % of control | endpoint: mean survival time, dose: 50.0 mg/kg/injection, schedule: Q01DX009 (sc), vehicle: steriod suspending solution 113 % of control and 106 % of control | endpoint: mean survival time, dose: 50.0 mg/kg/injection, schedule: Q01DX010 (sc), vehicle: steriod suspending solution 112 % of control | endpoint: mean survival time, dose: 100.0 mg/kg/injection, schedule: Q01DX009 (sc), vehicle: steriod suspending solution 116 % of control | endpoint: mean survival time, dose: 100.0 mg/kg/injection, schedule: Q01DX010 (sc), vehicle: steriod suspending solution 108 % of control | endpoint: mean survival time, dose: 200.0 mg/kg/injection, schedule: Q01DX009 (sc), vehicle: steriod suspending solution 113 % of control and 116 % of control

CC1(C)Oc2[nH]c(=O)n(-c3ccc(Cl)cc3)c(=O)c2C1c1ccc(Cl)cc1 (stereo not drawn)
inactive: endpoint: mean survival time, dose: 100.0 mg/kg/injection, schedule: Q04DX002 (ip), vehicle: saline with Tween-80 102 % of control | endpoint: mean survival time, dose: 200.0 mg/kg/injection, schedule: Q04DX002 (ip), vehicle: saline with Tween-80 105 % of control | endpoint: mean survival time, dose: 400.0 mg/kg/injection, schedule: Q04DX002 (ip), vehicle: saline with Tween-80 109 % of control

CCOC(=O)CC(C)(C)NCc1ccccc1
inactive: [2] 91 % of control | [3] 97 % of control | [4] 91 % of control

COc1cc2c(cc1OC)C1CC(=O)C3=C(CCCC3)N1CC2 (stereo not drawn)
inactive: [5] 101 % of control | [6] 95 % of control | [7] 89 % of control

CC(=O)OC1CCC2(C)C(=CCC3C2CCC2(C)C3CC3OC4(CCC(C)CO4)C(C)C32)C1 (stereo not drawn)
inactive: endpoint: mean survival time, dose: 100.0 mg/kg/injection, schedule: Q04DX003 (ip), vehicle: other 95 % of control | endpoint: mean survival time, dose: 200.0 mg/kg/injection, schedule: Q04DX003 (ip), vehicle: other 94 % of control | endpoint: mean survival time, dose: 400.0 mg/kg/injection, schedule: Q04DX003 (ip), vehicle: other 94 % of control

CC(C)(C)C1CCC(=O)C1 (stereo not drawn)
inactive: [8] 87 % of control | [9] 95 % of control

NC(=O)CC[n+]1ccccc1
inactive: endpoint: mean survival time, dose: 12.5 mg/kg/injection, schedule: Q04DX003 (ip), vehicle: saline 97 % of control | endpoint: mean survival time, dose: 25.0 mg/kg/injection, schedule: Q04DX003 (ip), vehicle: saline 97 % of control | endpoint: mean survival time, dose: 50.0 mg/kg/injection, schedule: Q04DX003 (ip), vehicle: saline 96 % of control

O=c1[nH]c(/C=C/c2ccccc2)c([N+](=O)[O-])c(=O)[nH]1
inactive: [1] 95 % of control | [10] 90 % of control | [11] 90 % of control

C=CCC(C)(C#N)C1C=CCC1 (stereo not drawn)
inactive: [12] 105 % of control | [5] 102 % of control | [13] 102 % of control | [6] 100 % of control | endpoint: mean survival time, dose: 400.0 mg/kg/injection, schedule: Q01DX009 (ip), vehicle: saline with Tween-80 103 % of control | [7] 93 % of control

OC1c2ccccc2C2CC12 (stereo not drawn)
inactive: [1] 105 % of control | [10] 102 % of control | [11] 105 % of control

COc1ccc(NC2=C(C)C(=O)C3=C(C2=O)[C@H](COC(N)=O)[C@]2(OC)[C@@H]4N[C@@H]4CN32)cc1OC
inactive: endpoint: median survival time, dose: 3.0 mg/kg/injection, schedule: Q01DX001 (ip), vehicle: water 124 % of control and 111 % of control | endpoint: median survival time, dose: 6.0 mg/kg/injection, schedule: Q01DX001 (ip), vehicle: water 124 % of control | endpoint: median survival time, dose: 24.0 mg/kg/injection, schedule: Q01DX001 (ip), vehicle: water 110 % of control

OCC1OC(n2cnc3c(NCCc4ccc(O)c(O)c4)ncnc32)C(O)C1O (stereo not drawn)
inactive: endpoint: mean survival time, dose: 12.5 mg/kg/injection, schedule: Q01DX005 (ip), vehicle: saline with Tween-80 104 % of control | endpoint: mean survival time, dose: 25.0 mg/kg/injection, schedule: Q01DX005 (ip), vehicle: saline with Tween-80 109 % of control | endpoint: mean survival time, dose: 50.0 mg/kg/injection, schedule: Q01DX005 (ip), vehicle: saline with Tween-80 116 % of control

OCC(O)c1ccccc1 (stereo not drawn)
inactive: endpoint: mean survival time, dose: 100.0 mg/kg/injection, schedule: Q04DX002 (ip), vehicle: saline 97 % of control | endpoint: mean survival time, dose: 200.0 mg/kg/injection, schedule: Q04DX002 (ip), vehicle: saline 101 % of control | endpoint: mean survival time, dose: 400.0 mg/kg/injection, schedule: Q04DX002 (ip), vehicle: saline 104 % of control

CC1CC(C)(C)N=C(C(C)CC2CCCCC2)O1 (stereo not drawn)
inactive: [1] 95 % of control | [10] 93 % of control

ClC1=C(Cl)C(Cl)=C(Cl)C1=Cc1ccccc1
inactive: endpoint: mean survival time, dose: 3.12 mg/kg/injection, schedule: Q01DX009 (ip), vehicle: saline with Tween-80 101 % of control | endpoint: mean survival time, dose: 6.25 mg/kg/injection, schedule: Q01DX009 (ip), vehicle: saline with Tween-80 104 % of control | [8] 105 % of control | [9] 106 % of control | endpoint: mean survival time, dose: 50.0 mg/kg/injection, schedule: Q01DX009 (ip), vehicle: saline with Tween-80 105 % of control

NC(=O)C(Br)Cc1cccc(Cl)c1 (stereo not drawn)
inactive: endpoint: mean survival time, dose: 50.0 mg/kg/injection, schedule: Q01DX001 (ip), vehicle: saline 102 % of control | endpoint: mean survival time, dose: 100.0 mg/kg/injection, schedule: Q01DX001 (ip), vehicle: saline 100 % of control | endpoint: mean survival time, dose: 200.0 mg/kg/injection, schedule: Q01DX001 (ip), vehicle: saline 100 % of control | endpoint: mean survival time, dose: 400.0 mg/kg/injection, schedule: Q01DX001 (ip), vehicle: saline 100 % of control

O=S(=O)(N/N=C/c1ccccc1)c1ccccc1
inactive: endpoint: mean survival time, dose: 12.5 mg/kg/injection, schedule: Q01DX009 (ip), vehicle: Klucel (hydroxypropylcellulose) (HPC) 97 % of control | [2] 95 % of control | [3] 90 % of control | [4] 94 % of control | endpoint: mean survival time, dose: 200.0 mg/kg/injection, schedule: Q01DX009 (ip), vehicle: Klucel (hydroxypropylcellulose) (HPC) 92 % of control | endpoint: mean survival time, dose: 400.0 mg/kg/injection, schedule: Q01DX009 (ip), vehicle: Klucel (hydroxypropylcellulose) (HPC) 97 % of control

CC(C)NC(=O)NO
inactive: endpoint: mean survival time, dose: 4.0 mg/kg/injection, schedule: Q03HX024 (ip), vehicle: saline 95 % of control | endpoint: mean survival time, dose: 8.0 mg/kg/injection, schedule: Q03HX024 (ip), vehicle: saline 98 % of control | endpoint: mean survival time, dose: 16.0 mg/kg/injection, schedule: Q03HX024 (ip), vehicle: saline 103 % of control | endpoint: mean survival time, dose: 32.0 mg/kg/injection, schedule: Q03HX024 (ip), vehicle: saline 98 % of control | endpoint: mean survival time, dose: 62.0 mg/kg/injection, schedule: Q03HX024 (ip), vehicle: saline with Tween-80 87 % of control | endpoint: mean survival time, dose: 64.0 mg/kg/injection, schedule: Q03HX024 (ip), vehicle: saline 98 % of control

COc1ccc(C(=O)/C=C/c2ccc(N(C)C)cc2)cc1
inactive: endpoint: mean survival time, dose: 75.0 mg/kg/injection, schedule: Q01DX001 (ip), vehicle: saline 95 % of control | endpoint: mean survival time, dose: 150.0 mg/kg/injection, schedule: Q01DX001 (ip), vehicle: saline 93 % of control

CCC(=O)/C(=C\c1ccccc1Cl)C(C)=O
inactive: [12] 100 % of control | [13] 97 % of control
